{"source": "ChEMBL document CHEMBL1201862", "about": "“PubChem BioAssay data set” (2004)", "key": {"[1]": {"molecular_target": "Polyadenylate-binding protein 1 (Homo sapiens, UniProt P11940)", "sequence (P11940 whole entry)": "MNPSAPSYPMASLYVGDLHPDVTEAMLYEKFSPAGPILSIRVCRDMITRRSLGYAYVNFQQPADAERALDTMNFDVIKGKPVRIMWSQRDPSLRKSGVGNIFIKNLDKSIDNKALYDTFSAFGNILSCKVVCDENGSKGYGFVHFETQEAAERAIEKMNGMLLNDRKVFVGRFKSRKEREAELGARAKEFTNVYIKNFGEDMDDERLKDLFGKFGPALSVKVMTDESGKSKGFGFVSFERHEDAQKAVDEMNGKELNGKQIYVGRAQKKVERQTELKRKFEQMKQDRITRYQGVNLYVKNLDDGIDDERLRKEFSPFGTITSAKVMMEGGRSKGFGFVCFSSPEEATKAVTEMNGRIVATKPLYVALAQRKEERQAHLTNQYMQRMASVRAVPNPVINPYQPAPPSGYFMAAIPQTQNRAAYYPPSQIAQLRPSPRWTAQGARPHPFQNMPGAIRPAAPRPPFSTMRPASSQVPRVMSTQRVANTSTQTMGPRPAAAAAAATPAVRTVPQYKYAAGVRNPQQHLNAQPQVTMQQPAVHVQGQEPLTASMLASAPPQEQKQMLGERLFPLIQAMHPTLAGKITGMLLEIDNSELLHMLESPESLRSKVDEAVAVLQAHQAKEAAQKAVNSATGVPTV", "assay": "blockers of PABP interaction with poly(A) – biochemical, fluorescence polarization, […] (AID 2014)"}, "[2]": {"molecular_target": "Eukaryotic translation initiation factor 4H (Homo sapiens, UniProt Q15056)", "assay": "eIF4H binding inhibition – biochemical, uHTS, fluorescence polarization, translation initiation inhibitor project, primary screen (AID 2012)"}, "HEK293": {"tested_on": "HEK293", "assay": "Fluorescence-based counterscreen for potentiators or agonists of NPY-Y2: cell-based high-throughput dose response assay to identify inhibitors of cyclic nucleotide gated ion channel (CNGC) activity. In this assay, the parental HEK293 cell line transfected with a cyclic-nucleotide gated ion channel (CNGC)-based cAMP sensor is used to measure inhibition of isoproterenol-induced CNGC activity by test compound.", "type": "functional", "details": "Homo sapiens"}, "[3]": {"molecular_target": "Neuropeptide Y receptor type 1 (Homo sapiens, UniProt P25929)", "sequence (P25929 whole entry)": "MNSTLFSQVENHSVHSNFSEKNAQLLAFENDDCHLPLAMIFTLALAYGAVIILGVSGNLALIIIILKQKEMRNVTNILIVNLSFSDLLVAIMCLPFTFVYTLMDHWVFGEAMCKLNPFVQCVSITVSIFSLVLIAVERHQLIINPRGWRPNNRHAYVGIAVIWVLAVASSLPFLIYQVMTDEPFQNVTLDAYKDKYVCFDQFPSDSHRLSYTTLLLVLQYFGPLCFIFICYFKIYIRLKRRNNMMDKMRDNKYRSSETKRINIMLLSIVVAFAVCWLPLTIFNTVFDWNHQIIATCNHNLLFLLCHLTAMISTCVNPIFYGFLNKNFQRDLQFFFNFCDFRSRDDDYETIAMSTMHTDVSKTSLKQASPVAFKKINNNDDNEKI", "assay": "Fluorescence-based counterscreen for agonists of NPY-Y2: cell-based high-throughput dose response assay for agonists of NPY-Y1.", "type": "functional"}, "[4]": {"molecular_target": "Peroxisome proliferator-activated receptor gamma/Nuclear receptor coactivator 1 (Homo sapiens, UniProt P37231)", "sequence (P37231 whole entry)": "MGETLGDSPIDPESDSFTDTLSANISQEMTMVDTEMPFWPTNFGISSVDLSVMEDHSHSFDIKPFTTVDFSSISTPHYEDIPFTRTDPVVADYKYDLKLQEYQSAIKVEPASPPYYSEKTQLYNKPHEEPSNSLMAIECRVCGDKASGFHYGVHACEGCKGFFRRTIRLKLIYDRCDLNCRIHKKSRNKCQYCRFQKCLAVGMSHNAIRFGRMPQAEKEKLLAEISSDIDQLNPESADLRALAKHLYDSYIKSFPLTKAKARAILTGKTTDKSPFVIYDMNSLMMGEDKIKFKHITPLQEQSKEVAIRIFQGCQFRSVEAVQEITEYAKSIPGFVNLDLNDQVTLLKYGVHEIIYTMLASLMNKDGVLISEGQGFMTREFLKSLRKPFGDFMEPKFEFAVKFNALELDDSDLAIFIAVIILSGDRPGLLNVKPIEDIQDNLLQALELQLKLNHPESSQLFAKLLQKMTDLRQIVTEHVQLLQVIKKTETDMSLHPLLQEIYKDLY", "sequence (Q15788 whole entry, further chain)": "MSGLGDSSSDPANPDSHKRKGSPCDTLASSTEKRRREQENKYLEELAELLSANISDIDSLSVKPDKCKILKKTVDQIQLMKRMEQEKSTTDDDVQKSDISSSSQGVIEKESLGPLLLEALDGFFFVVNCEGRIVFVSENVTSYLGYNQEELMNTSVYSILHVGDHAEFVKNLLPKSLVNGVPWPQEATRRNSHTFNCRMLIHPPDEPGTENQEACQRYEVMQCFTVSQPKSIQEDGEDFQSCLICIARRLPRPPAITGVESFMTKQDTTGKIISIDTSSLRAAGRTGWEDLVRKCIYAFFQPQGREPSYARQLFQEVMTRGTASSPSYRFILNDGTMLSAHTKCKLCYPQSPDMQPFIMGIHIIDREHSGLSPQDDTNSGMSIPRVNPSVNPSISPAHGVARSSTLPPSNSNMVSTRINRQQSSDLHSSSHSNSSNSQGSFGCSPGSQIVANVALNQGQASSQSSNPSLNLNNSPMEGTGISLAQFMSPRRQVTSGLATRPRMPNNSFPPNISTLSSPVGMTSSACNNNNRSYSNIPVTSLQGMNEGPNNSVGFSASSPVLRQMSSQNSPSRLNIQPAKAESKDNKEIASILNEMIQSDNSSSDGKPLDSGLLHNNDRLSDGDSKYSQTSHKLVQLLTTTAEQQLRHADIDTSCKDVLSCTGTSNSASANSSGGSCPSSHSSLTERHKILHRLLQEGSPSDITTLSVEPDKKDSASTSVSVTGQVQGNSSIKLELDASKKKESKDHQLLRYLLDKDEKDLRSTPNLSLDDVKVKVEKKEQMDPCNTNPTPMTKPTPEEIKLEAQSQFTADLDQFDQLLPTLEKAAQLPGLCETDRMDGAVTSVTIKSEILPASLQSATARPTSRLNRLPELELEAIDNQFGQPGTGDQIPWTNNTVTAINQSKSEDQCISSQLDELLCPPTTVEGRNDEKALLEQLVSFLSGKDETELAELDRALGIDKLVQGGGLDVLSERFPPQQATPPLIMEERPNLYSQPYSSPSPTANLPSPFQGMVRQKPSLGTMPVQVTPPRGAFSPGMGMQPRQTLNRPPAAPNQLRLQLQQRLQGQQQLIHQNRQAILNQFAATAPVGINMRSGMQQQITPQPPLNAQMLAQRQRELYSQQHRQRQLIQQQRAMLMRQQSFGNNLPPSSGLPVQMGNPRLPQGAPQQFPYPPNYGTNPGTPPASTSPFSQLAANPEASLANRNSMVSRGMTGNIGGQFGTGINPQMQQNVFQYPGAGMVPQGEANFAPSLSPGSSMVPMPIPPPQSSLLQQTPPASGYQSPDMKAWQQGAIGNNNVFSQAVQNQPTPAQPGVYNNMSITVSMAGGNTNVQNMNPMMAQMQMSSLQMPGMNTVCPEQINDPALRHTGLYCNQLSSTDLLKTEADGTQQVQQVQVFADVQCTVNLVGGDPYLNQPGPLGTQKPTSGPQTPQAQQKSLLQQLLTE", "assay": "(§1) TR-FRET dose response biochemical High Throughput Screening assay for agonists of the steroid receptor coactivator 1 (SRC-1) recruitment by the peroxisome proliferator-activated receptor gamma (PPAR gamma): non-selective agonists. [Related pubchem assays (depositor defined):AID1300, AID1808, AID504735, AID631]", "type": "protein assay"}, "[5]": {"molecular_target": "Neuropeptide Y receptor type 2 (Homo sapiens, UniProt P49146)", "sequence (P49146 whole entry)": "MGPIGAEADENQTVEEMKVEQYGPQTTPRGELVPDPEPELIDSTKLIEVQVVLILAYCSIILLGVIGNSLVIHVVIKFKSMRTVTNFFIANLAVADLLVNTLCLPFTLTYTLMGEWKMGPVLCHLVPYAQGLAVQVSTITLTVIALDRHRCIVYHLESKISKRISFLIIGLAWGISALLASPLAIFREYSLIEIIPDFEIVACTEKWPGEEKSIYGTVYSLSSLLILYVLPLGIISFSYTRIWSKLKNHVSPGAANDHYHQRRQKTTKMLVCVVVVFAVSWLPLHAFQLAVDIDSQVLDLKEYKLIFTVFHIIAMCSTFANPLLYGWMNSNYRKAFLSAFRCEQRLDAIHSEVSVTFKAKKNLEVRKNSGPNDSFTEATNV", "assay": "Fluorescence-based cell-based high-throughput dose response assay for agonists of NPY-Y2. [Related pubchem assays: 1703 (Screening assay (CNGC inhibitors).), 1359 (Screening assay (NPY-Y2 potentiators or agonists).), 1304 (Screening assay (NPY-Y1 potentiators or agonists).), 1710 (Screening assay (NPY-Y2 agonists).), 1791 (Summary AID.)]", "type": "functional"}, "[6]": {"molecular_target": "Peroxisome proliferator-activated receptor gamma/Nuclear receptor coactivator 3 (Homo sapiens, UniProt P37231)", "assay": "as §1, with “3 (SRC-3)” for “1 (SRC-1)”, “assays: 1301 (Confirmation screen.), 1048 (Primary screen.)]” for “assays (depositor defined):AID1300, AID1808, AID504735, AID631]”", "type": "functional"}, "[7]": {"molecular_target": "Peroxisome proliferator-activated receptor gamma/Nuclear receptor coactivator 2 (Homo sapiens, UniProt P37231)", "assay": "TR-FRET dose response biochemical High Throughput Screening assay for agonists of the steroid receptor coactivator 2 (SRC-2) recruitment by the peroxisome proliferator-activated receptor gamma (PPAR gamma): non-selective agonists. [Related pubchem assays: 1297, 1032 ]", "type": "functional"}, "Aminopeptidase N": {"molecular_target": "Aminopeptidase N (Plasmodium falciparum FcB1/Columbia, UniProt O96935)", "assay": "malaria alanyl aminopeptidase activity blockers – biochemical, fluorogenic H-Leu-NHMec substrate, 1536-well (AID 1445)", "design": "species or system Plasmodium falciparum 3D7, 3D7"}, "INS1": {"tested_on": "INS1", "assay": "INS-1E survival protection against cytokine death – cell-based, luminescence, retest, dose response (AID 449756)", "type": "functional", "details": "Rattus norvegicus"}, "[8]": {"assay": "Luminescence Cell-Based Dose Retest to Confirm Inhibitors of Cancer Stem Cells. [Related pubchem assays (depositor defined):AID2717, AID2721]", "type": "functional", "details": "Homo sapiens"}, "[9]": {"assay": "viability of HCT116 lacking mutant beta-catenin – cell-based, human colon tumor, dose response (AID 1045)", "type": "functional"}, "Oxytocin receptor": {"molecular_target": "Oxytocin receptor (Homo sapiens, UniProt P30559)", "sequence (P30559 whole entry)": "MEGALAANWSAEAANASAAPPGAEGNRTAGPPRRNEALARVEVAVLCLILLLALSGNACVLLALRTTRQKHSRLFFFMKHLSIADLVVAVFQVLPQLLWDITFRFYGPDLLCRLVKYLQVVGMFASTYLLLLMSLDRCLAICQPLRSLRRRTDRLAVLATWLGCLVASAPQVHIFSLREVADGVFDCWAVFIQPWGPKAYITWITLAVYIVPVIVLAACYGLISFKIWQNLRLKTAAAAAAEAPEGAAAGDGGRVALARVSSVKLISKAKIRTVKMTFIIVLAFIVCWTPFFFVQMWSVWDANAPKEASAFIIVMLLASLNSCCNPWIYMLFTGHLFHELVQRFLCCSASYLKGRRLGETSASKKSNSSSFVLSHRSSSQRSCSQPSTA", "assay": "Fluorescence-based cell-based high throughput dose response assay for agonists of the Oxytocin Receptor (OXTR). [Related pubchem assays: 2435 (Primary screen (OXTR agonists in singlicate)), 434991 (Counterscreen (V1R agonists in triplicate)), 2482 (Summary (OXTR agonists)), 434963 (Confirmation screen (OXTR agonists in triplicate))]", "type": "functional"}, "Vasopressin V1a receptor": {"molecular_target": "Vasopressin V1a receptor (Homo sapiens, UniProt P37288)", "assay": "Counterscreen for Oxytocin Receptor (OXTR) agonists: Fluorescence-based cell-based high throughput dose response assay to identify agonists of the vasopressin 1 receptor (V1R). [Related pubchem assays: 2435 (Primary screen (OXTR agonists in singlicate)), 434991 (Counterscreen (V1R agonists in triplicate)), 2482 (Summary (OXTR agonists)) …", "type": "functional"}, "[10]": {"assay": "viability of PTEN-deleted HCT116 cells – cell-based, HCT116 PTEN knockout, dose response (AID 1047)", "type": "functional"}, "Insulin-degrading enzyme": {"molecular_target": "T1, Insulin-degrading enzyme (Homo sapiens, UniProt P14735)", "T1 sequence (P14735 whole entry)": "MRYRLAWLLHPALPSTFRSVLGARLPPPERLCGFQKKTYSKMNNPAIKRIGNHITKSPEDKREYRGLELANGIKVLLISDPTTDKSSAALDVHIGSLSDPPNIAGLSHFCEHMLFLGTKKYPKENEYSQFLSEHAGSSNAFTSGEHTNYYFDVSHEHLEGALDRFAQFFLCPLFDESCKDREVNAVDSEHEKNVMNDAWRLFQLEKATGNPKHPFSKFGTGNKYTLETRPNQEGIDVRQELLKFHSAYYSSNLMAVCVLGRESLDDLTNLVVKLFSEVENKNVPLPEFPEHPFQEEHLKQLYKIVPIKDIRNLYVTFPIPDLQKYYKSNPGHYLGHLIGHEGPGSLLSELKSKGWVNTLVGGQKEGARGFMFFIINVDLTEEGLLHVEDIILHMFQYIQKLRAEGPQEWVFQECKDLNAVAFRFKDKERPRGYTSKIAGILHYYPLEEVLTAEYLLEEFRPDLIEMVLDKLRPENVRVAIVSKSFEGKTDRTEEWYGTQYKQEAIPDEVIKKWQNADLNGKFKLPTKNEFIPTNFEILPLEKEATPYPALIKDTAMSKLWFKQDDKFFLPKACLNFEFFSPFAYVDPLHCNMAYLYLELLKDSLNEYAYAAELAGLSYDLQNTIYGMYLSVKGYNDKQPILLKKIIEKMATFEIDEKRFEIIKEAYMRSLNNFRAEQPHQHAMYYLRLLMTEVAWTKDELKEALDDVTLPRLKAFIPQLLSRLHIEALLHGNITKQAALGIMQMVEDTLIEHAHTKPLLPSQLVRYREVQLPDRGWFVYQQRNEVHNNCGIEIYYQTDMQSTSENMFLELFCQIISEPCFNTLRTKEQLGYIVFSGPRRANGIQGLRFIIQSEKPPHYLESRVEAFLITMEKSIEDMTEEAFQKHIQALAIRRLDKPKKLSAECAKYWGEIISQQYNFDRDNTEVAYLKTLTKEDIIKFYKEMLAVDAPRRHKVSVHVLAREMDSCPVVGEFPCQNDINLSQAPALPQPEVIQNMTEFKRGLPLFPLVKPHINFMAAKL", "assay": "Dose Response: Fluorescence polarization-based cell-based high throughput dose response assay for inhibitors of insulin-degrading enzyme (IDE). [Related pubchem assays: 434962 (Primary screen (IDE inhibitors in singlicate)), 449730 (Counterscreen (Cytotoxicity in triplicate)), 435028 (Confirmation (IDE inhibitors in triplicate)), 434984 (Summary …", "type": "functional"}, "[11]": {"assay": "Counterscreen for IDE inhibitors: Luminescence-based cell-based high throughput dose response assay to identify compounds that are cytotoxic to HEK cells. [Related pubchem assays: 434962 (Primary screen (IDE inhibitors in singlicate)), 449730 (Counterscreen (Cytotoxicity in triplicate)), 435028 (Confirmation (IDE inhibitors in triplicate)) …", "type": "functional", "details": "HEK293"}, "Procathepsin L": {"molecular_target": "Procathepsin L (Homo sapiens, UniProt P07711)", "sequence (P07711 whole entry)": "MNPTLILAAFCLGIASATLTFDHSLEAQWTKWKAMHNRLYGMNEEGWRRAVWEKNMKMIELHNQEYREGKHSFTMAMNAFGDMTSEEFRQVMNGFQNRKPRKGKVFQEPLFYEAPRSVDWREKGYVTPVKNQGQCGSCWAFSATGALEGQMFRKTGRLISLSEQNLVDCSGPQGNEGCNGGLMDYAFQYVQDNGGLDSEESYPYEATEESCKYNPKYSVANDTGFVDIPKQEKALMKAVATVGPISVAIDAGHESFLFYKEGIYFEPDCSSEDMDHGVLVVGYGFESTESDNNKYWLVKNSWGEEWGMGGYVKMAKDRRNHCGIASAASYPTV"}, "Aspartyl aminopeptidase": {"molecular_target": "Aspartyl aminopeptidase (Plasmodium falciparum 3D7, UniProt Q8I2J3)"}, "Cytochrome P450 2C9": {"molecular_target": "Cytochrome P450 2C9 (Homo sapiens, UniProt P11712)", "sequence (P11712 whole entry)": "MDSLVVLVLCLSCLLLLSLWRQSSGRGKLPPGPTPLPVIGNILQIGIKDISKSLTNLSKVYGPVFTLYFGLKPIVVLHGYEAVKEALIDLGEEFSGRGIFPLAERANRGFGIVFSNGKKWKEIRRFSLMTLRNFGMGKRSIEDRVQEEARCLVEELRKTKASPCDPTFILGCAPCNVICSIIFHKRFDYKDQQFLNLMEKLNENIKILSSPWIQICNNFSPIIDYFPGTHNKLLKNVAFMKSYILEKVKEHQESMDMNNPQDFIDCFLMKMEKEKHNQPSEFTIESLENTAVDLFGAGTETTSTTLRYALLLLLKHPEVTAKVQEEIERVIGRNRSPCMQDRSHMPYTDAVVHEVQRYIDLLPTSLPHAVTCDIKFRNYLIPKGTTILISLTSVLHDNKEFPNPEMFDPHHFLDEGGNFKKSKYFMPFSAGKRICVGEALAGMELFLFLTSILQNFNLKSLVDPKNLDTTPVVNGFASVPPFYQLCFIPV", "details": "Potency"}, "Cytochrome P450 3A4": {"molecular_target": "Cytochrome P450 3A4 (Homo sapiens, UniProt P08684)", "details": "Potency"}}, "note": "The source made the active and inactive calls.", "data": [{"smiles": "C[N+]1(C)[C@@H]2CC[C@H]1CC(OC(=O)C(c1ccccc1)c1ccccc1)C2", "note": "(stereo partly specified)", "values": [{"measurement": "IC50", "setting": "[1]", "value": "6.66 µM (active)"}, {"measurement": "IC50", "setting": "[2]", "value": "> 100 µM (inactive)"}]}, {"smiles": "CC(C)OC(=O)C(C)Nc1nnc(S)nc1O", "note": "(stereo unspecified)", "values": [{"measurement": "EC50", "setting": "HEK293", "value": "> 35.4 µM (not active)"}, {"measurement": "EC50", "setting": "[3]", "value": "> 35.4 µM (not active)"}, {"measurement": "EC50", "setting": "[4]", "value": "4.26 µM (active)"}, {"measurement": "EC50", "setting": "[5]", "value": "> 35.4 µM (not active)"}, {"measurement": "EC50", "setting": "[6]", "value": "35.1 µM (not active)"}, {"measurement": "EC50", "setting": "[7]", "value": "4.97 µM (active)"}]}, {"smiles": "CC(C)CCNC(=O)CSc1nc2ccsc2c(=O)n1NC(=O)c1ccccc1", "values": [{"measurement": "IC50", "setting": "Aminopeptidase N", "value": "87.1 µM (active)"}]}, {"smiles": "COc1ccc(C2NCCc3c2[nH]c2ccccc32)cc1COc1ccc(F)cc1", "note": "(stereo unspecified)", "values": [{"measurement": "AC50", "setting": "INS1", "value": "6.96 µM (active)"}, {"measurement": "AC50", "setting": "[8]", "value": "5.89 µM (active)"}, {"measurement": "EC50", "setting": "[9]", "value": "7.05 µM (active)"}, {"measurement": "EC50", "setting": "Oxytocin receptor", "value": "26.7 µM (not active)"}, {"measurement": "EC50", "setting": "Vasopressin V1a receptor", "value": "20.8 µM (not active)"}, {"measurement": "EC50", "setting": "[10]", "value": "6.19 µM (active)"}]}, {"smiles": "COC(=O)C1=C(C)N=c2s/c(=C/c3ccoc3)c(=O)n2C1c1ccccc1", "note": "(stereo unspecified)", "values": [{"measurement": "IC50", "setting": "Insulin-degrading enzyme", "value": "> 2.07 µM (active)"}, {"measurement": "IC50", "setting": "[11]", "value": "16.3 µM (not active)"}]}, {"smiles": "CC(C)(C)c1ccc(O)c(/N=C/c2cc(Br)ccc2O)c1", "values": [{"measurement": "IC50", "setting": "Procathepsin L", "value": "> 59.6 µM (not active)"}, {"measurement": "IC50", "setting": "Aspartyl aminopeptidase", "value": "0.807 µM (active)"}]}, {"smiles": "COc1cc2c(cc1O)C[C@H]1c3c(cc(OC)c(O)c3-2)CCN1C", "note": "[ISOBOLDINE]", "values": [{"measurement": "AC50", "setting": "Cytochrome P450 2C9", "value": "25.1 µM (inconclusive)"}, {"measurement": "AC50", "setting": "Cytochrome P450 3A4", "value": "20 µM (inconclusive)"}]}]}
